Legend:
[1] = target: T1, mitochondrial benzodiazepine receptor (MBR) (Rattus norvegicus, UniProt P16257); assay: Binding assay of mitochondrial benzodiazepine receptor (MBR), [3H]4'-chlorodiazepam (Ro5-4864), rat kidney membrane-preparation; conditions: rat kidney membranes, [3H]4'-chlorodiazepam 0.5 nM, 0° C. for 150 minutes
T1 construct: from tissue; host or cells: kidney of male Wistar rats (crude membrane preparation)
How it was run: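 Kidney membranes from male Wistar rats were incubated with 0.5 nM [3H]Ro5-4864 in pH 7.4 sodium/potassium phosphate buffer with 100 mM NaCl for 150 min at 0 °C, then filtered. Nonspecific binding was defined with 50 μM diazepam. IC50 was obtained by nonlinear least-squares fitting of specific-binding inhibition.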

mice (male ddY) = assay: Social interaction test (antianxiety effect); type: in vivo, mouse; conditions: oral, 1 hour before test; statistically significant increase in social interaction time vs vehicle (Dunnett's test, 5%)
Description: The test is a behavioral pharmacological test wherein social interaction time which would arise between 2 animals (mice, rats or other) in a test apparatus is considered to be as an anxious indicator [see; File, S. E., J. Neurosci. Methods, 2, 219-238 (1980)]. It is known that a bright and unfamiliar test apparatus which is an aversive condition for mice or rats may suppress a social interaction of the animals and such suppressed social interaction may be restored by an antianxiety drug such as benzodiazepines.
A glass beaker which was inverted onto a frosted glass plate was brightly illuminated with a light source (ca. 1200 lux in the apparatus), and it was used as a test apparatus. Two mice (male ddY, 22-32 g) that were housed in separate home cages were orally treated with a test compound and returned to their home cages. One hour after the oral administration, the two mice were then placed together in the test apparatus, and the amount of time spent in social interaction by the two mice during a 15-minute period was recorded. The social interaction was defined as grooming and sniffing of the partner, genital investigation of the partner, climbing over or crawling under the partner. Four to five pairs (8 to 10 mice) were used per a group.
An antianxiety effect of the test compounds was presented as a minimum effective dose which indicated statistically significant increase in social interaction time as compared with a vehicle control group (Dunnett's test, Significance level: 5%).

male Std-Wistar rats = assay: Forced swimming test (antidepressant effect); type: in vivo, rat; conditions: 1 mg/kg orally 3 times (24 hours, 4 hours and 1 hour before the test); 6-minute period; vs vehicle, p<0.01
Protocol: An animal (mouse or rat) which is forced to swim in an inescapable water tank show an immobile posture, thought to reflect a state of behavioral despair, after an initial period of vigorous swimming activity. The forced swimming test, a behavioral despair model, is frequently used for evaluating antidepressant effect since a lot of antidepressants reduce the duration of immobility induced by forced swimming. The antidepressant effect of the compound of the present invention was evaluated in the forced swimming test based on the method of Porsolt R. D. et al. [see; Eur. J. Pharmacol., 47, 379-391 (1978)] with a minor modification.
In the test, a group of five male Std-Wistar rats, weighing 110-150 g, which were selected after training session was used. […]
The test compound (the compound of Example 40) was orally administered 3 times, i.e., 24 hours, 4 hours and 1 hour before the test. One hour after the final oral administration, the rats were put into the water and the immobile time observed during a 6-minute period was recorded. The effect shortening the immobile time in the test compound-treated group was evaluated using a Dunnett's multiple comparison test as compared with the vehicle control group.

C[C@H]1CCCN(C(=O)[C@@H]2Cc3ccccc3N2c2ccc(=O)n(C)n2)C1 [Example 40, (S)-1-(1-methyl-6-oxo-1,6-dihydropyridazin-3-yl)-2-[[(S)-3-methylpiperidin-1-yl]carbonyl]indoline]
IC50 [1]: 6.05 nM | melting point: 219 to 221 °C | Minimum effective dose (mice (male ddY)): 1 mg/kg | shortening of the immobile time (male Std-Wistar rats): 28%
